Columns and labels:
Settings in all cases: incubation time: 72 h
BT-474 [1] = test: drug sensitivity score (DSS), CellTiter-Blue viability (DSS (AUC-based score)); higher = stronger viability inhibition; extreme values may be limits of the assay
Protocol: (§1)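 DSRT with the CellTiter-Blue (resazurin reduction) viability readout, fluorescence 560/590 nm, 72 h incubation. Plates were normalised to DMSO and benzethonium chloride controls. DSS is computed from the area under the fitted dose-response curve (5 or 9 concentrations).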

BT-549 = test: as above
Protocol: as §1

CAL-120 = test: as above
Protocol: as §1

CAL-148 = test: as above
Protocol: as §1

CAL-51 [2] = test: as above
Protocol: as §1

CAL-85-1 [3] = test: as above
Protocol: as §1

DU-4475 = test: as above
Protocol: as §1

HCC1143 = test: as above
Protocol: as §1

HCC1599 [4] = test: as above
Protocol: as §1

HCC1937 [5] = test: as above
Protocol: as §1

HDQ-P1 [6] = test: as above
Protocol: as §1

Hs578T = test: as above
Protocol: as §1

MDA-MB-231 = test: as above
Protocol: as §1

MDA-MB-436 = test: as above
Protocol: as §1

MDA-MB-453 [7] = test: as above
Protocol: as §1

MDA-MB-468 [8] = test: as above
Protocol: as §1

MFM-223 = test: as above
Protocol: as §1

SK-BR-3 = test: as above
Protocol: as §1

BT-474 [9] = test: drug sensitivity score (DSS), CellTiter-Glo (DSS (AUC-based score)); higher = stronger drug effect (viability inhibition or cytotoxicity); extreme values may be limits of the assay
How it was run: (§2)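 Each compound occupied 5 concentrations in 10-fold steps over its own 10,000-fold range in 384-well plates, into which breast cancer cell lines were seeded as 20 µl suspension. Following 72 h of incubation, CellTox Green fluorescence (485/520 nm) was measured, and CellTiter-Glo luminescence was measured after 10 min at room temperature. Plates were individually normalised to 0.1 % DMSO and a positive kill control. From the area under the fitted dose-response curve, a drug sensitivity score was calculated.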

CAL-51 [10] = test: as above
How it was run: as §2

CAL-85-1 [11] = test: as above
How it was run: as §2

HCC1599 [12] = test: as above
How it was run: as §2

HCC1937 [13] = test: as above
How it was run: as §2

HDQ-P1 [14] = test: as above
How it was run: as §2

MDA-MB-453 [15] = test: as above
How it was run: as §2

MDA-MB-468 [16] = test: as above
How it was run: as §2

SMILES | drug sensitivity score (BT-474 [1]) | drug sensitivity score (BT-549) | drug sensitivity score (CAL-120) | drug sensitivity score (CAL-148) | drug sensitivity score (CAL-51 [2]) | drug sensitivity score (CAL-85-1 [3]) | drug sensitivity score (DU-4475) | drug sensitivity score (HCC1143) | drug sensitivity score (HCC1599 [4]) | drug sensitivity score (HCC1937 [5]) | drug sensitivity score (HDQ-P1 [6]) | drug sensitivity score (Hs578T) | drug sensitivity score (MDA-MB-231) | drug sensitivity score (MDA-MB-436) | drug sensitivity score (MDA-MB-453 [7]) | drug sensitivity score (MDA-MB-468 [8]) | drug sensitivity score (MFM-223) | drug sensitivity score (SK-BR-3) | drug sensitivity score (BT-474 [9]) | drug sensitivity score (CAL-51 [10]) | drug sensitivity score (CAL-85-1 [11]) | drug sensitivity score (HCC1599 [12]) | drug sensitivity score (HCC1937 [13]) | drug sensitivity score (HDQ-P1 [14]) | drug sensitivity score (MDA-MB-453 [15]) | drug sensitivity score (MDA-MB-468 [16])
O=c1[nH]c(=O)n([C@H]2C[C@H](O)[C@@H](CO)O2)cc1F [Floxuridine] | 0 | 6.97 | 19.1 | 18.3 | 21.3 | 14 | 0 | 3.31 | 0.768 | 3.61 | 0 | 9.02 | 8.09 | 10.6 | 4.36 | 17.8 | 0 | 17.9 | 5.99 | 17.3 | 17.5 | 9.95 | 10.3 | 2.32 | 0 | 6.72
O=c1[nH]cc(F)c(=O)[nH]1 [Fluorouracil] | 0 | 2.25 | 2.97 | 4.79 | 1.79 | 5.28 | 1.34 | 0 | 1.41 | 0 | 0 | 0 | 1.96 | 1.93 | 1.33 | 0.272 | 0 | 8.26 | 0 | 0 | 8.63 | 0 | 0 | 0 | 0 | 0
C[C@@H]1C=C2C(=O)O[C@@H]3CC[C@H](C1)[C@]23O [Galiellalactone] | 2.65 | 10.4 | 0 | 4.5 | 0.94 | 9.4 | 0 | 0 | 0 | 5.76 | 2.82 | 0.961 | 9.39 | 6.26 | 8.97 | 6.59 | 2.28 | 6.66 | 0 | 4.43 | 1.79 | 0 | 0 | 0 | 0 | 6.03
COC1=C2C[C@@H](C)C[C@H](OC)[C@H](O)[C@@H](C)/C=C(\C)[C@H](OC(N)=O)[C@@H](OC)/C=C\C=C(/C)C(=O)NC(=CC1=O)C2=O [Geldanamycin] | 22.7 | 23.4 | 25.7 | 18.2 | 14.4 | 16.6 | 22.5 | 20.4 | 14.7 | 21.8 | 20.1 | 19.2 | 24.2 | 25 | 23 | 24.1 | 21.8 | 25.2 | 4.34 | 5.12 | 6 | 1.53 | 5.93 | 4 | 3.9 | 4.27
Cn1cnc2c(F)c(Nc3ccc(Br)cc3F)c(C(=O)NOCCO)cc21 [MEK-162] | 0 | 0 | 0 | 0 | 0.246 | 0 | 16 | 7.86 | 2.32 | 0 | 0 | 0 | 4.22 | 0 | 0 | 0 | 0 | 0 | 2.42 | 0 | 0 | 0 | 0 | 5.43 | 0 | 0
CCOc1cc2ncc(C#N)c(Nc3ccc(OCc4ccccn4)c(Cl)c3)c2cc1NC(=O)/C=C/CN(C)C [Neratinib] | 0 | 0 | 0 | 0 | 0 | 0 | 0 | 0 | 0 | 0 | 0 | 0 | 0 | 0 | 4.42 | 0 | 0 | 0 | 0 | 1.09 | 7.08 | 0 | 0 | 6.58 | 8.47 | 4.31
COc1ccc(C2=N[C@@H](c3ccc(Cl)cc3)[C@@H](c3ccc(Cl)cc3)N2C(=O)N2CCNC(=O)C2)c(OC(C)C)c1 [Nutlin-3] | 0 | 0 | 0 | 0 | 2.91 | 0 | 3.53 | 0 | 0 | 0 | 0 | 0 | 0 | 0 | 0 | 0 | 0 | 0 | 0 | 10.8 | 0 | 0 | 0 | 0 | 0.52 | 0
COC1=CC(c2cc3ccccc3[nH]2)=N/C1=C\c1[nH]c(C)cc1C [Obatoclax] | 15.2 | 16.4 | 25.3 | 4.47 | 7.63 | 8.55 | 2.24 | 9.51 | 7.48 | 25.1 | 15.4 | 16.6 | 21 | 13.7 | 13.8 | 16.6 | 7.09 | 20.1 | 7.09 | 4.52 | 4.01 | 0 | 7.4 | 0 | 2.69 | 3.12
COC(=O)C[C@](O)(CCCC(C)(C)O)C(=O)O[C@@H]1C(OC)=C[C@]23CCCN2CCc2cc4c(cc2[C@H]13)OCO4 [Omacetaxine] | 20.5 | 28.3 | 28.6 | 31.6 | 30.7 | 31.8 | 38.1 | 24.5 | 24.8 | 31.8 | 30.7 | 28.8 | 27.8 | 26.7 | 28.2 | 28.5 | 26.3 | 28.3 | 16.7 | 27.1 | 29.6 | 26.7 | 21.2 | 23.1 | 16.8 | 27.4
